# Values of other authors as cited in article PMC3433420 (PLoS ONE, 2012).
# Like-named read-outs stand apart in the source and are kept apart here.
# Molecular target: SH2 and PTB domains
# Details: cited from earlier work
# From the text: Supplement pone.0044471.s022.xlsx, sheet "Most recent PM interactions" | column: Kd || Supplement pone.0044471.s022.xlsx, sheet "All original PM interactions" | column: Kd
substance,measurement,setting,value
"DAEEpYLVPQQGFd [ErbB2 pY1023, N-terminally rhodamine-labeled 13-mer phosphopeptide]",Kd,"protein ABL2, ref Jones et al. 2006 / Kaushansky et al. Chem and Biol 2008",2 µM
same,Kd,"protein BLK, ref Jones et al. 2006 / Kaushansky et al. Chem and Biol 2008",2 µM
same,Kd,"protein CRK, ref Jones et al. 2006 / Kaushansky et al. Chem and Biol 2008",2 µM
same,Kd,"protein CRKL, ref Jones et al. 2006 / Kaushansky et al. Chem and Biol 2008",2 µM
same,Kd,"protein DAPP1, ref Jones et al. 2006 / Kaushansky et al. Chem and Biol 2008",2 µM
same,Kd,"protein FGR, ref Jones et al. 2006 / Kaushansky et al. Chem and Biol 2008",2 µM
same,Kd,"protein ITK, ref Jones et al. 2006 / Kaushansky et al. Chem and Biol 2008",2 µM
same,Kd,"protein LYN, ref Jones et al. 2006 / Kaushansky et al. Chem and Biol 2008",2 µM
same,Kd,"protein NCK2, ref Jones et al. 2006 / Kaushansky et al. Chem and Biol 2008",2 µM
same,Kd,"protein PIK3R1-C, ref Jones et al. 2006 / Kaushansky et al. Chem and Biol 2008",2 µM
same,Kd,"protein PIK3R1-NC, ref Jones et al. 2006 / Kaushansky et al. Chem and Biol 2008",1.64 µM
same,Kd,"protein PIK3R2-N, ref Jones et al. 2006 / Kaushansky et al. Chem and Biol 2008",1.95 µM
same,Kd,"protein PIK3R2-NC, ref Jones et al. 2006 / Kaushansky et al. Chem and Biol 2008",2 µM
same,Kd,"protein PIK3R3-N, ref Jones et al. 2006 / Kaushansky et al. Chem and Biol 2008",1.93 µM
same,Kd,"protein PIK3R3-NC, ref Jones et al. 2006 / Kaushansky et al. Chem and Biol 2008",0.53 µM
same,Kd,"protein PLCG1-C, ref Jones et al. 2006 / Kaushansky et al. Chem and Biol 2008",1.46 µM
same,Kd,"protein PLCG1-NC, ref Jones et al. 2006 / Kaushansky et al. Chem and Biol 2008",2 µM
same,Kd,"protein PTPN6-C, ref Jones et al. 2006 / Kaushansky et al. Chem and Biol 2008",2 µM
same,Kd,"protein RASA1-N, ref Jones et al. 2006 / Kaushansky et al. Chem and Biol 2008",2 µM
same,Kd,"protein RASA1-NC, ref Jones et al. 2006 / Kaushansky et al. Chem and Biol 2008",2 µM
same,Kd,"protein SH2B2, ref Jones et al. 2006 / Kaushansky et al. Chem and Biol 2008",2 µM
same,Kd,"protein SH2D3A, ref Jones et al. 2006 / Kaushansky et al. Chem and Biol 2008",2 µM
same,Kd,"protein SHC1-PTB, ref Jones et al. 2006 / Kaushansky et al. Chem and Biol 2008",2 µM
same,Kd,"protein SHC2-PTB, ref Jones et al. 2006 / Kaushansky et al. Chem and Biol 2008",2 µM
same,Kd,"protein SHC3, ref Jones et al. 2006 / Kaushansky et al. Chem and Biol 2008",2 µM
same,Kd,"protein SLA2, ref Jones et al. 2006 / Kaushansky et al. Chem and Biol 2008",2 µM
same,Kd,"protein SLA, ref Jones et al. 2006 / Kaushansky et al. Chem and Biol 2008",2 µM
same,Kd,"protein SOCS1, ref Jones et al. 2006 / Kaushansky et al. Chem and Biol 2008",2 µM
same,Kd,"protein SOCS2, ref Jones et al. 2006 / Kaushansky et al. Chem and Biol 2008",2 µM
same,Kd,"protein SRC, ref Jones et al. 2006 / Kaushansky et al. Chem and Biol 2008",0.76 µM
same,Kd,"protein SUPT6H, ref Jones et al. 2006 / Kaushansky et al. Chem and Biol 2008",0.91 µM
same,Kd,"protein SYK-NC, ref Jones et al. 2006 / Kaushansky et al. Chem and Biol 2008",0.37 µM
same,Kd,"protein TEC, ref Jones et al. 2006 / Kaushansky et al. Chem and Biol 2008",2 µM
same,Kd,"protein TENC1, ref Jones et al. 2006 / Kaushansky et al. Chem and Biol 2008",2 µM
same,Kd,"protein VAV1, ref Jones et al. 2006 / Kaushansky et al. Chem and Biol 2008",2 µM
same,Kd,"protein VAV2, ref Jones et al. 2006 / Kaushansky et al. Chem and Biol 2008",2 µM
same,Kd,"protein VAV3, ref Jones et al. 2006 / Kaushansky et al. Chem and Biol 2008",2 µM
same,Kd,"protein YES1, ref Jones et al. 2006 / Kaushansky et al. Chem and Biol 2008",1.17 µM
"RDPHpYQDPHSTAd [ErbB1 pY1125, N-terminally rhodamine-labeled 13-mer phosphopeptide]",Kd,"protein ABL2, ref Jones et al. 2006 / Kaushansky et al. Mol Biosys 2008 / Kaushansky et al. Chem and Biol 2008",0.13 µM
same,Kd,"protein BMX, ref Jones et al. 2006 / Kaushansky et al. Mol Biosys 2008 / Kaushansky et al. Chem and Biol 2008",1.07 µM
same,Kd,"protein CRK, ref Jones et al. 2006 / Kaushansky et al. Mol Biosys 2008 / Kaushansky et al. Chem and Biol 2008",1.23 µM
same,Kd,"protein CRKL, ref Jones et al. 2006 / Kaushansky et al. Mol Biosys 2008 / Kaushansky et al. Chem and Biol 2008",2 µM
same,Kd,"protein RASA1-N, ref Jones et al. 2006 / Kaushansky et al. Mol Biosys 2008 / Kaushansky et al. Chem and Biol 2008",1.32 µM
same,Kd,"protein SHB, ref Jones et al. 2006 / Kaushansky et al. Mol Biosys 2008 / Kaushansky et al. Chem and Biol 2008",0.99 µM
same,Kd,"protein SYK-NC, ref Jones et al. 2006 / Kaushansky et al. Mol Biosys 2008 / Kaushansky et al. Chem and Biol 2008",0.98 µM
same,Kd,"protein TNS1, ref Jones et al. 2006 / Kaushansky et al. Mol Biosys 2008 / Kaushansky et al. Chem and Biol 2008",1.28 µM
same,Kd,"protein YES1, ref Jones et al. 2006 / Kaushansky et al. Mol Biosys 2008 / Kaushansky et al. Chem and Biol 2008",0.38 µM
"DETEpYHADGGKVd [ErbB2 pY877, N-terminally rhodamine-labeled 13-mer phosphopeptide]",Kd,"protein BLK, ref Kaushansky et al. Chem and Biol 2008",0.72 µM
same,Kd,"protein PLCG2-N, ref Kaushansky et al. Chem and Biol 2008",0.65 µM
same,Kd,"protein PLCG2-NC, ref Kaushansky et al. Chem and Biol 2008",1.1 µM
same,Kd,"protein RASA1-NC, ref Kaushansky et al. Chem and Biol 2008",1.4 µM
same,Kd,"protein YES1, ref Kaushansky et al. Chem and Biol 2008",1.89 µM
